Laboratory results reported in publication PMC8776995 (Frontiers in Chemistry, 2022).
“And” between values parts separate entries of the source, which are not always exact repeats. Equal values may be shown once. Read-outs that look alike come from different tables or passages of the source.

Assays:
H460 cells = test: CCK-8 antiproliferation assay, H460; details: for Inhibitory efficacy: H460 cells
PC-9 cells = test: Annexin V/PI flow cytometry for cell apoptosis, PC-9; format: cell-based, human; set-up: key to Apoptosis (sum of Q2 and Q3) / Apoptosis, Average: % apoptotic cells (Annexin V/PI flow cytometry); details: for cell apoptosis (flow cytometry): PC-9, 4, 8 and 12 μM, 48 h; for Apoptosis, Average / Apoptosis (sum of Q2 and Q3) / Lymphocytes/Q2: FITC-A+ , PI-A+ Freq. of Parent / Lymphocytes/Q3: FITC-A+ , PI-A- Freq. of Parent: PC-9, 48h; for Apoptosis, Average: average of three repeats; for Apoptosis (sum of Q2 and Q3): single repeats (Repeat 1-3); for Lymphocytes/Q2: FITC-A+ , PI-A+ Freq. of Parent / Lymphocytes/Q3: FITC-A+ , PI-A- Freq. of Parent: single runs
Protocol: To establish whether the antiproliferative efficacy is associated with apoptosis, PC-9 and H460 cells were treated with compound e4 or e12 of various concentrations (4, 8 and 12 μM) for 48 h, and then assessed with flow cytometry.
Cell-apoptosis analysis was carried out by flow cytometry using the Annexin V/PI apoptosis kit according to the manufacturer’s manual. Briefly, PC-9 or H460 (3 × 10^4–5 × 10^4/well) cells were seeded in 12-well plates for 24 h, and then treated with 0.1% DMSO (as control) or various concentrations of compound e4 or e12 for 48 h, respectively. Cells were harvested, washed with PBS, and then incubated with 100ul of 1X Annexin V binding buffer containing 1 μl PI and 1 μl FITC Annexin V for 15 min at RT in the dark. 200 µl of 1X binding buffer were added to each tube for flow cytometry analysis (BD LSRFortessa™ Flow Cytometer). The percentages of apoptotic cells were analyzed using FlowJo soft.

[1] = Body mass of PC-9 tumor-bearing NSG mice after treatment; details: for Change in body weight: individual animals
Protocol: PC-9 xenografts were established by subcutaneous transplantation of cancer cells into the flanks of NSG mice (male, 4–6-week old). […] Tumor volumes were measured using calipers and calculated with the formula: V = length × width^2/2. The mouse body mass was recorded as well. 19 days after inoculation, the mice were sacrificed and the tumors were harvested and weighed.

PC-9 xenograft = test: In vivo antitumor activity, PC-9 xenograft in NSG mice; set-up: species or system mouse
Protocol: The mouse body mass was recorded as well.

[2] = 1uM, given as fraction, Repeat 1-3
[3] = 2uM, given as fraction, Repeat 1-3
[4] = 8uM, given as fraction, Repeat 1-3
[5] = 16uM, given as fraction, Repeat 1-3
[6] = Homo sapiens, NCI-H460, read-out: Inhibitory efficacy, H460 cells, 1uM, given as fraction, Repeat 1-3
[7] = Homo sapiens, NCI-H460, read-out: Inhibitory efficacy, H460 cells, 2uM, given as fraction, Repeat 1-3
[8] = Homo sapiens, NCI-H460, read-out: Inhibitory efficacy, H460 cells, 8uM, given as fraction, Repeat 1-3
[9] = Homo sapiens, NCI-H460, read-out: Inhibitory efficacy, H460 cells, 16uM, given as fraction, Repeat 1-3

Q: For `COCCOc1cc2ncnc(Nc3cccc(-c4cn(-c5ccc(C)cc5)nn4)c3)c2cc1OCCOC` [e12, [6,7-Bis-(2-methoxy-ethoxy)-quinazolin-4-yl]-[3-(1-p-tolyl-1H-[1,2,3]triazol-4-yl)-phenyl]-amine], which Inhibitory efficacy (H460 cells; [2]) is on record?
A: 0.2117 and 0.1598

Q: What about the Inhibitory efficacy (H460 cells; [3]) of the same compound?
A: 0.3397 and 0.3411

Q: What about the Inhibitory efficacy (H460 cells; 4uM, given as fraction, Repeat 1-3) of the same compound?
A: 0.5452 and 0.4421

Q: What about the Inhibitory efficacy (H460 cells; [4]) of the same compound?
A: 0.667 and 0.5743

Q: What about the Inhibitory efficacy (H460 cells; [5]) of the same compound?
A: 0.9091 and 0.887

Q: And the inhibition at 1 µM (H460 cells; [6])?
A: 16.7%

Q: What about the inhibition at 2 µM (H460 cells; [7]) of the same compound?
A: 36.8%

Q: And the inhibition at 4 µM (H460 cells; Homo sapiens, NCI-H460, read-out: Inhibitory efficacy, H460 cells, 4uM, given as fraction, Repeat 1-3)?
A: 58.9%

Q: And the inhibition at 8 µM (H460 cells; [8])?
A: 65.1%

Q: And the inhibition at 16 µM (H460 cells; [9])?
A: 88.9%

Q: And the “cell apoptosis (flow cytometry)” value (PC-9 cells)?
A: significant cell apoptosis

Q: What about the “Apoptosis, Average” value (PC-9 cells; 4uM) of the same compound?
A: 13.94

Q: What about the “Apoptosis (sum of Q2 and Q3)” value (PC-9 cells; 4uM) of the same compound?
A: 15.01 and 16.36 and 10.45

Q: And the “Lymphocytes/Q2: FITC-A+ , PI-A+ Freq. of Parent” value (shortened to “Lymphocytes/Q2: FITC-A+ ”) (PC-9 cells; 4uM)?
A: 14.50% and 15.4% and 9.81%

Q: And the “Lymphocytes/Q3: FITC-A+ , PI-A- Freq. of Parent” value (“Lymphocytes/Q3: FITC-A+ ” below) (PC-9 cells; 4uM)?
A: 0.51% and 0.96% and 0.64%

Q: What about the “Apoptosis, Average” value (PC-9 cells; 8uM) of the same compound?
A: 12.92

Q: And the “Apoptosis (sum of Q2 and Q3)” value (PC-9 cells; 8uM)?
A: 13.98 and 12.64 and 12.13

Q: What about the “Lymphocytes/Q2: FITC-A+ ” value (PC-9 cells; 8uM) of the same compound?
A: 12.60% and 10.6% and 10.7%

Q: And the “Lymphocytes/Q3: FITC-A+ ” value (PC-9 cells; 8uM)?
A: 1.38% and 2.04% and 1.43%

Q: And the “Apoptosis, Average” value (PC-9 cells; 12uM)?
A: 29.21

Q: What about the “Apoptosis (sum of Q2 and Q3)” value (PC-9 cells; 12uM) of the same compound?
A: 24.77 and 29.39 and 33.48

Q: What about the “Lymphocytes/Q2: FITC-A+ ” value (PC-9 cells; 12uM) of the same compound?
A: 20.50% and 25.9% and 29.5%

Q: What about the “Lymphocytes/Q3: FITC-A+ ” value (PC-9 cells; 12uM) of the same compound?
A: 4.27% and 3.49% and 3.98%

Q: What about the melting point of the same compound?
A: 95 to 98 °C

Q: Which Inhibitory efficacy (H460 cells; [2]) does the source give for `COCCOc1cc2ncnc(Nc3cccc(-c4cn(Cc5cc(Br)cc(Br)c5)nn4)c3)c2cc1OCCOC` [e4, [6,7-Bis-(2-methoxy-ethoxy)-quinazolin-4-yl]-{3-[1-(3,5-dibromo-benzyl)-1H-[1,2,3]triazol-4-yl]-phenyl}-amine] here?
A: 0.09927 and 0.1204

Q: And the Inhibitory efficacy (H460 cells; [3])?
A: 0.08541 and 0.1118

Q: What about the Inhibitory efficacy (H460 cells; [4]) of the same compound?
A: 0.8422 and 0.8158

Q: And the Inhibitory efficacy (H460 cells; [5])?
A: 0.9425 and 0.965

Q: And the IC50 (H460 cells; Homo sapiens, NCI-H460, 48 h, read-out: IC50 (μM) H460, CCK-8, 48 h, average ± SD of three independent experiments)?
A: < 10 µM

Q: What about the inhibition at 1 µM (H460 cells; [6]) of the same compound?
A: 19.4%

Q: And the inhibition at 2 µM (H460 cells; [7])?
A: 16.7%

Q: And the inhibition at 8 µM (H460 cells; [8])?
A: 79.5%

Q: And the inhibition at 16 µM (H460 cells; [9])?
A: 95%

Q: What about the IC50 (H460 cells; read-out: IC50 (μM) H460, CCK-8, 48 h, average ± SD of three independent experiments) of the same compound?
A: 5.18 ± 0.78 µM

Q: What about the “cell apoptosis (flow cytometry)” value (PC-9 cells) of the same compound?
A: significant cell apoptosis

Q: And the “Apoptosis, Average” value (PC-9 cells; 4uM)?
A: 10.24

Q: What about the “Lymphocytes/Q2: FITC-A+ ” value (PC-9 cells; 4uM) of the same compound?
A: 4.32% and 13.0% and 11.9%

Q: And the “Lymphocytes/Q3: FITC-A+ ” value (PC-9 cells; 4uM)?
A: 0.25% and 0.69% and 0.56%

Q: And the “Apoptosis, Average” value (PC-9 cells; 8uM)?
A: 14.45

Q: What about the “Apoptosis (sum of Q2 and Q3)” value (PC-9 cells; 8uM) of the same compound?
A: 10.39 and 18.02 and 14.93

Q: What about the “Lymphocytes/Q2: FITC-A+ ” value (PC-9 cells; 8uM) of the same compound?
A: 9.22% and 16.0% and 13.2%

Q: And the “Lymphocytes/Q3: FITC-A+ ” value (PC-9 cells; 8uM)?
A: 1.17% and 2.02% and 1.73%

Q: What about the “Apoptosis, Average” value (PC-9 cells; 12uM) of the same compound?
A: 35.74

Q: What about the “Apoptosis (sum of Q2 and Q3)” value (PC-9 cells; 12uM) of the same compound?
A: 33.11 and 39.69 and 34.42

Q: And the “Lymphocytes/Q2: FITC-A+ ” value (PC-9 cells; 12uM)?
A: 28.20% and 34.7% and 29.1%

Q: What about the “Lymphocytes/Q3: FITC-A+ ” value (PC-9 cells; 12uM) of the same compound?
A: 4.91% and 4.99% and 5.32%

Q: And the Body weigh ([1]; Day13, individual animals)?
A: 27 g and 25.6 g and 24.1 g and 27.3 g and 28.8 g

Q: And the Body weigh ([1]; Day15, individual animals)?
A: 25.7 g and 26.2 g and 25.9 g and 27.3 g and 29 g

Q: What about the “Change in body weight” value ([1]; Day15 vs previous weighing) of the same compound?
A: -4.815% and 2.344% and 7.469% and 0% and 0.6944%

Q: What about the Body weigh ([1]; Day17, individual animals) of the same compound?
A: 26 g and 23.9 g and 26.1 g and 27.3 g and 29.1 g

Q: What about the “Change in body weight” value ([1]; Day17 vs previous weighing) of the same compound?
A: 1.167% and -8.779% and 0.7722% and 0% and 0.3448%

Q: What about the Body weigh ([1]; Day19, individual animals) of the same compound?
A: 25.9 g and 26 g and 26.2 g and 27.1 g and 29.1 g

Q: And the “Change in body weight” value ([1]; Day19 vs previous weighing)?
A: -0.3846% and 8.787% and 0.3831% and -0.7326% and 0%

Q: And the tumor volume mean (PC-9 xenograft; Day13, group mean)?
A: 63.4029 mm3

Q: What about the tumor length (PC-9 xenograft; Day13, individual animals) of the same compound?
A: 5.08 mm and 6.5 mm and 4.8 mm and 6.3 mm and 6.04 mm and 5.8 mm and 7.4 mm and 6.1 mm

Q: And the tumor volume (PC-9 xenograft; Day13, individual animals)?
A: 59.9938 mm3 and 60.0925 mm3 and 44.376 mm3 and 55.566 mm3 and 68.426 mm3 and 38.5875 mm3 and 71.3446 mm3 and 78.292 mm3 and 93.9476 mm3

Q: And the tumor width (PC-9 xenograft; Day13, individual animals)?
A: 4.86 mm and 4.3 mm and 4.2 mm and 4.76 mm and 3.5 mm and 4.96 mm and 4.6 mm and 5.55 mm

Q: And the tumor volume mean (PC-9 xenograft; Day15, group mean)?
A: 44.2866 mm3

Q: What about the tumor length (PC-9 xenograft; Day15, individual animals) of the same compound?
A: 3.97 mm and 5.56 mm and 5.73 mm and 4.91 mm and 4.11 mm and 5.48 mm and 4.95 mm and 6.93 mm and 5.72 mm

Q: What about the tumor volume (PC-9 xenograft; Day15, individual animals) of the same compound?
A: 23.9012 mm3 and 57.8062 mm3 and 55.2146 mm3 and 35.078 mm3 and 33.0446 mm3 and 32.9921 mm3 and 21.979 mm3 and 91.1881 mm3 and 47.3756 mm3

Q: What about the tumor width (PC-9 xenograft; Day15, individual animals) of the same compound?
A: 3.47 mm and 4.56 mm and 4.39 mm and 3.78 mm and 4.01 mm and 2.98 mm and 5.13 mm and 4.07 mm

Q: And the tumor volume mean (PC-9 xenograft; Day17, group mean)?
A: 35.7355 mm3

Q: What about the tumor length (PC-9 xenograft; Day17, individual animals) of the same compound?
A: 3.7 mm and 7.6 mm and 4.76 mm and 5.8 mm and 4.94 mm and 4.9 mm and 5.1 mm and 4.6 mm

Q: And the tumor volume (PC-9 xenograft; Day17, individual animals)?
A: 17.7785 mm3 and 54.872 mm3 and 38.4618 mm3 and 25.4086 mm3 and 28.0515 mm3 and 47.432 mm3 and 38.7855 mm3 and 30.2575 mm3 and 40.572 mm3

Q: What about the tumor width (PC-9 xenograft; Day17, individual animals) of the same compound?
A: 3.1 mm and 3.8 mm and 4.02 mm and 2.96 mm and 3.37 mm and 4.4 mm and 3.9 mm and 3.5 mm and 4.2 mm

Q: What about the tumor volume mean (PC-9 xenograft; Day19, group mean) of the same compound?
A: 22.669 mm3

Q: What about the Tumor weight (PC-9 xenograft; Day19, individual animals) of the same compound?
A: 0.07 g and 0.02 g and 0.04 g and 0.03 g

Q: And the tumor length (PC-9 xenograft; Day19, individual animals)?
A: 4.55 mm and 5.74 mm and 3.59 mm and 2.83 mm and 2.52 mm and 3 mm and 4.51 mm and 5.54 mm and 4.24 mm

Q: And the tumor volume (PC-9 xenograft; Day19, individual animals)?
A: 7.871 mm3 and 60.7292 mm3 and 20.5068 mm3 and 2.813 mm3 and 5.663 mm3 and 9.6774 mm3 and 39.0241 mm3 and 23.1353 mm3 and 34.6018 mm3

Q: What about the tumor width (PC-9 xenograft; Day19, individual animals) of the same compound?
A: 1.86 mm and 4.6 mm and 3.38 mm and 1.41 mm and 2.12 mm and 2.54 mm and 4.16 mm and 2.89 mm and 4.04 mm
